Columns and labels:
glucocorticoid receptor = biological target: T1, glucocorticoid receptor (Homo sapiens, UniProt P04150); conditions: read-out: EC50, potency for glucocorticoid receptor activation; cited from earlier work
T1 sequence (P04150 1-777): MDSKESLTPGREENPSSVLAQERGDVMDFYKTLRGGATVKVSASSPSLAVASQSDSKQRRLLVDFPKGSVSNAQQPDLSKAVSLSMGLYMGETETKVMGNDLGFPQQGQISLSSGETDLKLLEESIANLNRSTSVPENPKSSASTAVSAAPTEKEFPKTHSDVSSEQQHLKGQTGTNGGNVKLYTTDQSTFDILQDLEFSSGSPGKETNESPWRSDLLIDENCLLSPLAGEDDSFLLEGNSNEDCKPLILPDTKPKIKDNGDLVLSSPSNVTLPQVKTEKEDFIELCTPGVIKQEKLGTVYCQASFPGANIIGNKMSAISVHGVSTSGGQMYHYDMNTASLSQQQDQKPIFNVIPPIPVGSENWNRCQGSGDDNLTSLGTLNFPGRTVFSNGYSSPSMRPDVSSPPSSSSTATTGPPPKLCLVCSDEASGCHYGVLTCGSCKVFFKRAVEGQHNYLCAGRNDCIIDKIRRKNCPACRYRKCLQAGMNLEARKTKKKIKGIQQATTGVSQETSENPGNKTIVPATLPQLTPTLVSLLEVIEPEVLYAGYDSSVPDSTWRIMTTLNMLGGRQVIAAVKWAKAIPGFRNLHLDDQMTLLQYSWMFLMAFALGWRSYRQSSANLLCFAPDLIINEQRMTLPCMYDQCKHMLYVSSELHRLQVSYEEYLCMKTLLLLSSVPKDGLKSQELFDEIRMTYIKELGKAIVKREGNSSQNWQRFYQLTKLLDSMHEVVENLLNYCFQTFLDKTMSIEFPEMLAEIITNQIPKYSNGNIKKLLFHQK

Collagen 3a = assay: mRNA expression in fibroblast cultures (qRT-PCR): collagen 3; type: cell-based, human; conditions: WE-1, graded concentrations, 72-hour incubation (FIG. 7A)
Method: (§1) Cells were seeded into 24-well plates and incubated with compounds in the presence or absence of wound exudates for 72 hours. Total RNA was isolated using the RNeasy Mini Kit (QIAGEN #74106) according to the manufacturer's protocol. RNA integrity and concentration for each sample was confirmed and measured with the Qubit fluorometer. Each RNA sample was then diluted to 2 ng/μl in nuclease-free doubly distilled water.
(§2) 20 ng of total RNA were reverse-transcribed into cDNA and immediately subjected to PCR amplification using the SuperScript Ill Platinum One-Step Quantitative RT-PCR System with ROX (Invitrogen #11745). qRT-PCR amplifications were performed in 20 μl reactions containing 9 μl 2× Reaction Mix with ROX, 0.4 μl SuperScript III RT/Platinum Taq Mix and 1 μl primer (final: 900 nM, Taqman Gene Expression Assay, Applied Biosystems)
(§3) The program included 30 minutes of reverse transcription at 48° C., an initial denaturation for 5 minutes at 95° C. followed by 40 cycles of denaturation at 95° C. for 15 seconds and annealing at 60° C. for 60 seconds. Reactions were set up in 96-well format PCR plates (Peqlab #732-2879) and carried out in a Mx3005P Real-Time PCR Detection System (Stratagene).
(§4) TaqMan Gene Expression Assays (Applied Biosystems) were used, which include preoptimized probe and primer sets specific for the genes being validated. The sequences and ID numbers are listed below:
(§5) The house keeping gene elongation factor 1a (EF1a) was used as a reference gene. Normalized expression was calculated using the comparative Ct (or ΔCt) method, and fold changes were derived from the 2-ΔΔCt values for each gene. Graphs were prepared using relative Ct values that were calculated by subtracting the EF1a Ct values from the corresponding Ct values for the gene being measured.

IL-8 [1] = assay: U937 cell stimulation assay (LPS-induced IL-8); type: cell-based, human; conditions: LPS 100 ng/ml, 16 hours (FIG. 16A)
Method: The human monocytic cell line U937 (ATCC CRL 1593) was routinely grown in RPMI_1640 supplemented by 10% FCS and 2 mM glutamine, and 100 U/ml penicillin/100 μg/ml streptomycin. Cells were seeded at 4×10^5/ml in 50 μl/well of a 384-well plate and combined cells with graded concentrations of test compounds and LPS at 100 ng/ml. After 16 hours, the supernatants were transferred to fresh plates and frozen at −20° C. for IL-8 analysis, using a commercial ELISA kit.

IL1β = assay: mRNA expression in fibroblast cultures (qRT-PCR): IL-1β; type: cell-based, human
Method: as §1
as §2, with “Biosystems) […]” for “Biosystems)”
as §5

[2] = system: full-thickness excisional wounds; assay: Delayed wound healing in a pig model; type: in vivo
Method: The animal experiments were approved by governmental authorities. Two young farm pigs (10-12 kg) were anesthetized and full-thickness excisional wounds were developed using a 6 mm biopsy punch. During the first 5 days after wounding, the wounds were stimulated with a) 0.05% R848 (resiquimod) and 50 μl human wound exudate, b) 0.05% R848 and human serum or c) human serum alone. R848 was applied in the mornings and exudate and serum 6 hours later, in 50 μl of solutions gelified by the addition of 2% HPMC. On days 6-10, wounds were treated once daily with mapracorat or vehicle (50% PG/47.5% H2O/0.5% Tween 80/2% HPMC). The wounds were clinically scored daily. The total wound score (maximum score=21) consisted of wound appearance (dry vs. moist), size, wound content, pus, crust, erythema intensity, erythema width, swelling and necrosis. Reported values are individual values for each of the 2 pigs.

IL-8 [3] = assay: Primary human monocyte cytokine secretion assay (spontaneous IL-8); type: cell-based; conditions: 16 hours (FIG. 16B)
Method: Primary human monocytes were prepared from peripheral blood mononuclear cells (PBMC). PBMC were isolated from buffy coats obtained from the Red Cross, Vienna, using LymphoPrep (Technoclone). 30 ml of buffy concentrate was diluted 1:2 with PBS, gently underlayered with 15 ml Lymphoprep in a 50 ml Falcon tube and centrifuged for 25 minutes at 1800 rpm at 21° C. The interphase was carefully transferred to a new Falcon tube and filled up to 50 ml with ice cold PBS. After another centrifugation step (10 minutes, 1200 rpm, 4° C.), the cell pellet was washed 3 times with PBS, resuspended in RPMI medium containing 20% FCS and 10% DMSO and frozen in liquid nitrogen. Monocytes were generated from frozen aliquots using positive selection with the CD14 Beads-Kit (Miltenyi) on an autoMACS-Sorter (Miltenyi) according to the manufacturer's instructions.
Cells were seeded at 8×10^5/ml in 50 μl/well of a 384-well plate and combined cells with graded concentrations of test compounds. After 16 hours, the supernatants were transferred to fresh plates and frozen at −20° C. for IL-8 analysis, using a commercial ELISA kit.

Collagen 1a = assay: mRNA expression in fibroblast cultures (qRT-PCR): collagen 1; type: cell-based, human; conditions: WE-1, graded concentrations, 72-hour incubation (FIG. 6A)
Method: as §1, §2, §3, §4, §5

Q: For `Cc1ccc2c(NC[C@](O)(CC(C)(C)c3cc(F)cc4c3OCC4)C(F)(F)F)cccc2n1` [Mapracorat], which EC50 (glucocorticoid receptor) is on record?
A: 1.9 nM

Q: And the “collagen 3 mRNA expression” value (Collagen 3a)?
A: at all three concentrations enhanced collagen 3 mRNA expression in the presence of WE

Q: What about the “LPS-induced IL-8 secretion in U937 cells” value (IL-8 [1]) of the same molecule?
A: inhibited both LPS-induced and spontaneous IL-8 secretion

Q: And the “IL-1β mRNA expression” value (IL1β; WE-1, graded concentrations, 72-hour incubation (FIG. 8A))?
A: dose-dependently inhibited IL-1β mRNA expression in the presence of WE

Q: What about the “IL-1β mRNA expression” value (IL1β; medium in the absence of WE, 72-hour incubation (FIG. 8B)) of the same molecule?
A: no IL-1β induction in medium

Q: What about the total wound score ([2]; 10 mM and 1 mM, once daily days 6-10, WE-01, WE-02 and R848 as inducers of delayed wound healing) of the same molecule?
A: reduced the wound score from days 6 to 12

Q: What about the “healing of control wounds” value ([2]; control wounds in the presence of human serum (FIG. 13D)) of the same molecule?
A: did not have any negative effect on the healing of control wounds

Q: What about the “spontaneous IL-8 secretion in human monocytes” value (IL-8 [3]) of the same molecule?
A: inhibited both LPS-induced and spontaneous IL-8 secretion

Q: What about the “collagen 1 mRNA expression” value (Collagen 1a) of the same molecule?
A: dose-dependently enhanced collagen 1 mRNA expression in the presence of WE

From patent US12496304B2, “Selective glucocorticoid receptor modifiers for treating impaired skin wound healing” (AKRIBES BIOMEDICAL GMBH, priority 2019, dated 2025)
